# Where two headings read alike, the source gives them in different places.
# Assays:
# [1] = test system: 34 MDR P. aeruginosa clinical isolates (CDC & FDA AR Isolate Bank); assay: microbe, parasite or virus in culture; assay type: cell-based, Pseudomonas aeruginosa; settings: for MIC: Pseudomonas aeruginosa, alone or + labelled EPI […] (TXA09155 head: 50 µg/mL)
# Description: P. aeruginosa ATCC 27853 was obtained from the American Type Culture Collection (ATCC; Manassas, VA, USA). P. aeruginosa multidrug-resistant isolates were obtained from the CDC and FDA Antibiotic Resistance Isolate Bank (Atlanta, GA, USA). P. aeruginosa DA7232 (gyrA-T83I, parC-S80L) was a kind gift from Prof. Dan I. Andersson, Uppsala University, Uppsala, Sweden, and has been characterized elsewhere. P. aeruginosa strains K767 (WT), K1455 (mexAB-oprM overexpressed), K2415 (mexXY-oprM overexpressed), and K3698 (oprM∆) were obtained from Prof. Keith Poole, Queen’s University, Kingston, Ontario, Canada and have been characterized elsewhere. Bacterial cells were grown in cation-adjusted Mueller Hinton (CAMH) media, brain heart infusion broth (BHI), or tryptic soy agar (TSA) plates were all obtained from Becton, Dickinson, and Company (BD; Franklin Lakes, NJ, USA). […] Azithromycin was purchased from Tokyo Chemical Industry (Portland, OR, USA). […] Ethidium bromide (EtBr) and glucose were purchased from VWR (Radnor, PA, USA). MC-04,124 and TXA01182 were synthesized at TAXIS Pharmaceuticals. Carbonyl cyanide 3-chlorophenylhydrazone (CCCP) was purchased from Enzo Life Sciences (Farmingdale, NY, USA). DiOC2 (3) and propidium iodide were obtained from Thermo Fisher Scientific (Waltham, MA, USA).
# (§1) MIC assays were performed as described previously.
# [2] = test system: P. aeruginosa DA7232 (gyrA-T83I, parC-S80L); assay: MIC / levofloxacin potentiation, fluoroquinolone-resistant strain; assay type: cell-based, Pseudomonas aeruginosa
# Description: P. aeruginosa ATCC 27853 was obtained from the American Type Culture Collection (ATCC; Manassas, VA, USA). P. aeruginosa multidrug-resistant isolates were obtained from the CDC and FDA Antibiotic Resistance Isolate Bank (Atlanta, GA, USA). P. aeruginosa DA7232 (gyrA-T83I, parC-S80L) was a kind gift from Prof. Dan I. Andersson, Uppsala University, Uppsala, Sweden, and has been characterized elsewhere. P. aeruginosa strains K767 (WT), K1455 (mexAB-oprM overexpressed), K2415 (mexXY-oprM overexpressed), and K3698 (oprM∆) were obtained from Prof. Keith Poole, Queen’s University, Kingston, Ontario, Canada and have been characterized elsewhere. Bacterial cells were grown in cation-adjusted Mueller Hinton (CAMH) media, brain heart infusion broth (BHI), or tryptic soy agar (TSA) plates were all obtained from Becton, Dickinson, and Company (BD; Franklin Lakes, NJ, USA). Aztreonam, ceftazidime, moxifloxacin, levofloxacin, minocycline, tigecycline, chloramphenicol, nitrocefin, and imipenem were purchased from TOKU-E (Bellingham, WA, USA). Azithromycin was purchased from Tokyo Chemical Industry (Portland, OR, USA). Cotrimoxazole was purchased from Toronto Research Chemicals (Toronto, ON, Canada). Doxycycline and polymyxin B were purchased from Sigma-Aldrich (St. Louis, MO, USA). Ethidium bromide (EtBr) and glucose were purchased from VWR (Radnor, PA, USA). MC-04,124 and TXA01182 were synthesized at TAXIS Pharmaceuticals. Carbonyl cyanide 3-chlorophenylhydrazone (CCCP) was purchased from Enzo Life Sciences (Farmingdale, NY, USA). DiOC2 (3) and propidium iodide were obtained from Thermo Fisher Scientific (Waltham, MA, USA).
# as §1
# [3] = n: 34, in combination EPI fixed […]
smiles,measurement,setting,value
C[C@H]1COc2c(N3CCN(C)CC3)c(F)cc3c(=O)c(C(=O)O)cn1c23 [Levofloxacin],MIC,"[1]; read-out: Levofloxacin MIC, strain AR-0229",64 mg/L
same,MIC,"[1]; read-out: Levofloxacin MIC, strain AR-0230",64 mg/L
same,MIC,"[1]; read-out: Levofloxacin MIC, strain AR-0231",64 mg/L
same,MIC,"[1]; read-out: Levofloxacin MIC, strain AR-0232",8 mg/L
same,MIC,"[1]; read-out: Levofloxacin MIC, strain AR-0233",4 mg/L
same,MIC,"[1]; read-out: Levofloxacin MIC, strain AR-0234",8 mg/L
same,MIC,"[1]; read-out: Levofloxacin MIC, strain AR-0236",32 mg/L
same,MIC,"[1]; read-out: Levofloxacin MIC, strain AR-0239",64 mg/L
same,MIC,"[1]; read-out: Levofloxacin MIC, strain AR-0240",128 mg/L
same,MIC,"[1]; read-out: Levofloxacin MIC, strain AR-0241",64 mg/L
same,MIC,"[1]; read-out: Levofloxacin MIC, strain AR-0242",16 mg/L
same,MIC,"[1]; read-out: Levofloxacin MIC, strain AR-0244",128 mg/L
same,MIC,"[1]; read-out: Levofloxacin MIC, strain AR-0245",128 mg/L
same,MIC,"[1]; read-out: Levofloxacin MIC, strain AR-0246",64 mg/L
same,MIC,"[1]; read-out: Levofloxacin MIC, strain AR-0247",2 mg/L
same,MIC,"[1]; read-out: Levofloxacin MIC, strain AR-0248",16 mg/L
same,MIC,"[1]; read-out: Levofloxacin MIC, strain AR-0249",64 mg/L
same,MIC,"[1]; read-out: Levofloxacin MIC, strain AR-0250",64 mg/L
same,MIC,"[1]; read-out: Levofloxacin MIC, strain AR-0252",32 mg/L
same,MIC,"[1]; read-out: Levofloxacin MIC, strain AR-0253",2 mg/L
same,MIC,"[1]; read-out: Levofloxacin MIC, strain AR-0256",0.5 mg/L
same,MIC,"[1]; read-out: Levofloxacin MIC, strain AR-0258",0.5 mg/L
same,MIC,"[1]; read-out: Levofloxacin MIC, strain AR-0259",0.5 mg/L
same,MIC,"[1]; read-out: Levofloxacin MIC, strain AR-0260",64 mg/L
same,MIC,"[1]; read-out: Levofloxacin MIC, strain AR-0261",8 mg/L
same,MIC,"[1]; read-out: Levofloxacin MIC, strain AR-0262",4 mg/L
same,MIC,"[1]; read-out: Levofloxacin MIC, strain AR-0264",32 mg/L
same,MIC,"[1]; read-out: Levofloxacin MIC, strain AR-0265",64 mg/L
same,MIC,"[1]; read-out: Levofloxacin MIC, strain AR-0266",32 mg/L
same,MIC,"[1]; read-out: Levofloxacin MIC, strain AR-0267",32 mg/L
same,MIC,"[1]; read-out: Levofloxacin MIC, strain AR-0269",32 mg/L
same,MIC,"[1]; read-out: Levofloxacin MIC, strain AR-0270",32 mg/L
same,MIC,"[1]; read-out: Levofloxacin MIC, strain AR-0271",32 mg/L
same,MIC,"[1]; read-out: Levofloxacin MIC, strain AR-0272",16 mg/L
same,Cumulative Susceptibility % Strains at 0.5,"[1]; concentration 0.5 µg/ml, n: 34",9%
same,Cumulative Susceptibility % Strains at 1,"[1]; concentration 1 µg/ml, n: 34",9%
same,Cumulative Susceptibility % Strains at 2,"[1]; concentration 2 µg/ml, n: 34",15%
same,Cumulative Susceptibility % Strains at 4,"[1]; concentration 4 µg/ml, n: 34",21%
same,Cumulative Susceptibility % Strains at 8,"[1]; concentration 8 µg/ml, n: 34",29%
same,Cumulative Susceptibility % Strains at 16,"[1]; concentration 16 µg/ml, n: 34",38%
same,Cumulative Susceptibility % Strains at 32,"[1]; concentration 32 µg/ml, n: 34",62%
same,Cumulative Susceptibility % Strains at 0.06,"[1]; concentration column 0.06 µg/ml, n: 34",0%
same,Cumulative Susceptibility % Strains at 64,"[1]; concentration column 64 µg/ml, n: 34",91%
same,Cumulative Susceptibility % Strains at 128,"[1]; concentration column 128 µg/ml, n: 34",100%
same,Cumulative Susceptibility % Strains at ≤0.03,"[1]; concentration column ≤0.03 µg/ml, n: 34",0%
same,MIC50,[1]; [3],32 mg/L
same,MIC90,[1]; [3],64 mg/L
same,MIC Range,[1]; [3],0.5 to 128 mg/L
same,MIC Range,"[1]; n: 34, in combination EPI fixed […], listed as LVX",0.5 to 128 mg/L
same,MIC,"[2]; Pseudomonas aeruginosa, read-out: levofloxacin MIC in the presence of […] TXA09155",1 mg/L
same,Levofloxacin MIC,"[2]; levofloxacin alone, strain DA7232",256 mg/L

# Reference: article PMC9220351, “Evaluation of a Conformationally Constrained Indole Carboxamide as a Potential Efflux Pump Inhibitor in Pseudomonas aeruginosa” (Antibiotics, 2022)
